Assay [1] deals with primary bovine chondrocytes. Description: inhibition of cytokine-induced nitric oxide release (Greiss reaction). Format: cell-based. Particulars: Bos taurus, Chondrocyte; second value of the cell (after the slash); TNFα and oncostatin M, 48 hours; read-out: NO INHIBTION μM IC50. The source says:
In the screen, hMSCs were used as a surrogate to future targeting of the resident MSCs with the cartilage joint. It was in that setting upon which we identified PRO1. In a joint injury, the primary cell type a therapeutic would have contact with is the chondrocyte. Although cartilage or chondrocyte-targeted screening has not lead to the development of a successful drug modifying osteoarthritis drug (DMOAD) to date, it is believed that a stem cell-based therapeutic would protect and even repair the existing chondrocytes. Therefore, protection of the articular chondrocytes and cartilage from a mature bovine knee was assessed. PRO1 and its analogues were incubated with primary bovine chondrocytes or cartilage explants cultures grown in the presence of TNFα and oncostatin M to mimic the cytokine-induced damage that can occur during OA. In the presence of the cytokine cocktail, in vitro cultured primary chondrocytes released 4-5 fold more nitric oxide (NO) than the untreated chondrocytes (50 μM vs 10 μM) as measured by the Greiss reaction. In cells treated with the cytokine cocktail and PRO1, the small molecule could effectively block the release of NO by up to 70% FIG. 2C). Similarly, in ex vivo treated cartilage explants, cytokine-induced release of glycosaminoglycans (GAG) was reduced by up to 60% by PRO1 (FIG. 2D). Finally, hMSC were grown in pellet culture for 21 days.
(§1) Primary hMSCs were plated (10,000/well) in 384-well plates and cultured for 18 days. The cells were fixed with 4% formalin, permeabilized with triton (0.5%), digested with 0.5 mg/ml collagenase II to unwind the collagen fibrils, and then immunostained with an antibody recognizing type II collagen. DAPI (2 μg/ml) was added to visualize the nuclei. The chondrogenic nodules stained positive for type II collagen but lacked expression of type X collagen and osteocalcin, markers for chondrocyte hypertrophy and osteoblasts, respectively (not shown). 10,000 hMSCs (passages 3-5) were plated in Greiner 384-well low-bottom plates on day 1. The cells were allowed to adhere and stimulated for 48 hrs (days 2-3) with the indicated stimuli in MSC growth media (Millipore). The media was then removed and replaced with serum-free DMEM for an additional 16 days. This media was replenished on days 10 and 15 of the assay. Primary bovine chondrocytes were isolated from the articular surfaces from mature knees. After one week of culture, 8,500 cells were trypsinized and plated in Greiner 384-well white clear-bottom plates in growth media. […] 20 μl of the supernatant was mixed with 20 μl of the Greiss reagent and quantitated at 540 nm as described by the Promega kit instructions. Bovine cartilage explants (cut in circular explants in a 96 well plate) were cultured in the presence of 20 ng/ml TNFα and 10 ng/ml oncostatin M to induce GAG release for 72 hours (FIG. 2D). PRO1 was added at the indicated concentrations during the entire 72 hrs. […] Parafin sections were hydrated, incubated in low pH Antigen unmasking solution (Vector) at 90 C for 10 minutes, permeabilized with 0.1% collagenase II (only for the sections stained with type II collagen) for 10 minutes, blocked with CAS block for 10 minutes and then incubated with the primary antibody (type II collagen, aggrecan or Timp1) antibody (Abcam) overnight at 4 C. The antigens were visualized through standard ABC detection methods and developed with DAB. Representative of 3 sections stained/treatment group (independent experiments).

The test system of assay [2] is human mesenchymal stem cells (hMSCs). As to the kind of experiment: chondrogenic nodule formation by hMSCs (high throughput screen). Format: cell-based. Particulars: for EC50: Homo sapiens, Mesenchymal stem cells, first value of the cell (before the slash), read-out: CHONDROGENIC μM EC50. On the procedure: The primary screening assay was based upon the development of chondrogenic nodules. Chondrocytes can grow in monolayer in vitro, but to more closely mimic their native environment in the joint, the cells are routinely cultured in non-adherent conditions such as in pellet cultures or alginate bead suspensions.
In the actual screen of a library of 22,000 structurally diverse heterocycles, 10^4 primary hMSCs were plated in 384 well plates in serum free DMEM. The cells were treated with 5 μM of each compound and incubated for 4 days. […] To facilitate high throughput imaged-based detection, the chondrogenic nodules were stained with […]. The Nile Red stained nodules were quantified on an Acumen eX3 (high content imaging device) by excitation with a 488 laser for rapid detection of the nodules.
Primary hMSCs grown in a 96 well Greiner plates (50,000/well) were incubated for 4 days in the presence of the 5 uM of each DMSO or 100 nM of PRO1. On day 4, the cells were fixed with 4% formalin for 10 minutes, washed and stained with 1 μg/ml of Rhodamine B for 2 hours at room temperature.

The test system of a further assay is hMSCs. Description: type II collagen expression in hMSC cultures (18 day assay). Particulars: Homo sapiens. Format: cell-based, human. As to the method:
The chondrogenic differentiation event was initiated quickly even though a fully differentiated chondrocyte phenotype cannot be assessed prior to 14 days in culture. In an 18 day assay, compound treatment was only required for the first 48 hrs and followed by removal and replacement of the media (in the absence of stimuli, FIG. 2B). The promotion of chondrogenic differentiation was not altered or enhanced upon longer treatment with the stimuli (data not shown).
as §1

These results are taken from patent publication US10166237B2, “Compounds and methods for inducing chondrogenesis” (The Scripps Research Institute, priority 2011, dated 2019).

On to `O=C(c1ccccc1)c1ccc(NC(=O)c2ccccc2C(=O)O)cc1`, for which, in assay [1], the IC50 worked out at 2.5 µM. Besides, in assay [2], the EC50 was over 10 µM. For `CCCOC(=O)c1ccc(NC(=O)c2ccccc2C(=O)O)cc1`, in assay [1], the IC50 amounted to 0.624 µM. The EC50 in assay [2] is over 10 µM.

As to `COC(=O)c1cc(C(=O)O)ccc1C(=O)Nc1ccc(C(=O)O)cc1`, in assay [1], the IC50 is over 10 µM. Still for that read-out and setting: in the case of `O=C(O)c1ccccc1C(=O)Nc1ccc(S(=O)(=O)N2CCCCC2)cc1` it was 2.7 µM.

For `O=C(Nc1ccc(Cc2ccccc2)cc1)c1cc(Cl)cc(Cl)c1C(=O)O`, the IC50 in assay [1] was over 10 µM. The same measure, in the same setting: as for `C=COc1ccc(NC(=O)c2ccccc2C(=O)O)cc1`, the figure is over 10 µM; as for `C#CCOC(=O)c1ccccc1C(=O)Nc1ccc(Br)cc1`, over 10 µM; as for `COC(=O)c1ccccc1C(=O)Nc1ccccc1`, over 10 µM. Same read-out and setting: in the case of `O=C(Nc1ccccc1)c1ccccc1C(=O)OCc1ccc([N+](=O)[O-])cc1` it was over 10 µM; in that of `C=CCOC(=O)c1ccccc1C(=O)Nc1ccc(I)cc1`, over 10 µM. Same read-out and setting: in the case of `CC1COCCN1C(=O)c1ccc(NC(=O)c2ccccc2C(=O)O)cc1` (stereo not shown) it was 2.64 µM.

With `C=C(C)CS(=O)(=O)c1ccc(NC(=O)c2ccccc2C(=O)O)cc1`, in assay [1], the IC50 turned out to be 0.925 µM. For `CCCCCOc1ccc(NC(=O)c2ccccc2C(=O)O)cc1`, the IC50 in assay [1] is over 10 µM.

Take `COC(=O)c1ccccc1C(=O)Nc1ccc(C#N)cc1`: the IC50 in assay [1] was over 10 µM.

For `CCc1ccc(NC(=O)c2ccc(C(=O)O)cc2C(=O)O)cc1`, the IC50 in assay [1] came to 0.925 µM.

Take `CC(C)(C)Oc1ccc(NC(=O)c2ccccc2C(=O)O)cc1`: in assay [1], the IC50 is over 10 µM. Still for that read-out and setting: in the case of `O=C(O)c1cc(Cl)c(Cl)cc1C(=O)Nc1ccc(Cl)cc1` it was over 10 µM; in that of `COc1ccc(NC(=O)c2ccccc2C(=O)Oc2ccc(OC)cc2)cc1`, over 10 µM. Turning to `O=C(O)c1cc([N+](=O)[O-])ccc1C(=O)Nc1ccc(-c2ccccc2)cc1`, the IC50 in assay [1] is over 10 µM. Still for that read-out and setting: in the case of `CC(=O)Nc1ccc(NC(=O)c2ccccc2C(=O)O)cc1` it was over 10 µM. Regarding `O=C(O)c1ccccc1C(=O)Nc1ccc(F)cc1`, the IC50 in assay [1] turned out to be 0.0125 µM. Besides, the EC50 in assay [2] is over 10 µM. With `Cc1ccc2nc(-c3ccc(NC(=O)c4ccccc4C(=O)O)cc3)sc2c1`, the IC50 in assay [1] stood at 0.987 µM. On the same count and under the same terms, as for `O=C(O)c1ccccc1C(=O)Nc1ccc(-c2csc(-c3ccccc3)n2)cc1`, the figure is over 10 µM.

As for `O=C(O)c1ccc(NC(=O)c2ccccc2C(=O)O)c(C(=O)O)c1`, the IC50 in assay [1] was over 10 µM.

Take `O=C(O)c1ccc(C(=O)Nc2ccc(Br)cc2)c(C(=O)O)c1`: the IC50 in assay [1] was over 10 µM. On the same count and under the same terms, as for `O=C(O)c1ccc(C(=O)Nc2ccc(O)cc2)c(C(=O)O)c1`, the figure is over 10 µM; as for `Cc1ccc(Oc2ccc(NC(=O)c3ccccc3C(=O)O)cc2)cc1`, over 10 µM. The same measure, in the same setting: as for `O=C(O)c1ccccc1C(=O)Nc1ccc(Oc2ccc3ccccc3c2)cc1`, the figure is over 10 µM; as for `COc1ccc(NC(=O)c2cc(Cl)c(Cl)cc2C(=O)O)cc1`, over 10 µM; as for `O=C(O)c1ccccc1C(=O)Nc1ccc(OC(F)F)cc1`, over 10 µM. On the same count and under the same terms, as for `O=C(O)c1ccccc1C(=O)Nc1ccc([N+](=O)[O-])cc1`, the figure is over 10 µM; as for `CCN(CC)c1ccc(NC(=O)c2ccccc2C(=O)O)cc1`, 2.98 µM; as for `O=C(O)c1ccccc1C(=O)Nc1ccc(S(=O)(=O)NCc2ccccc2)cc1`, over 10 µM.

As to `O=C(O)c1ccccc1C(=O)Nc1ccc(Oc2ccccc2)cc1`, the IC50 in assay [1] is over 10 µM.

For `C#CCOC(=O)c1ccccc1C(=O)Nc1ccc(Cl)cc1`, the IC50 in assay [1] was over 10 µM.

Turning to `O=C(O)c1ccccc1C(=O)Nc1ccc(C(=O)N2CCOCC2)cc1`, the IC50 in assay [1] is over 10 µM. Same read-out and setting: in the case of `CC(C)(C)c1ccc(NC(=O)c2cc(Cl)c(Cl)cc2C(=O)O)cc1` it was over 10 µM; in that of `CCOc1ccc(NC(=O)c2cccc(O)c2C(=O)O)cc1`, over 10 µM; in that of `O=C(O)c1ccc(C(=O)Nc2ccc(I)cc2)c(C(=O)O)c1`, over 10 µM. For the compound `O=C(O)c1ccccc1C(=O)Nc1ccc(CO)cc1` [AKT-CH2OH, 2-((4-(hydroxymethyl)phenyl)carbamoyl)benzoic acid], the IC50 in assay [1] worked out at 0.27 µM. Moreover, the results for the 50% effective concentration (EC50) (in assay [2]; in the assay on hMSCs) were 0.04 µM and 8.46 µM, respectively. For `[N-]=[N+]=Nc1ccc(C(=O)NCCCNC(=O)c2ccccc2C(=O)NNC(=O)CCOCCC2SCC3NC(=O)NC32)c(O)c1` (stereo not shown) [AKT-azide], in assay [1], the IC50 came to 0.12 µM. In the assay with hMSCs, this compound showed an EC50 of 0.654 µM. Consider `COc1ccc(NC(=O)c2ccccc2C(=O)O)cc1` [Compound L2, 2-((4-methoxyphenyl)carbamoyl)benzoic acid], for which the EC50 (in assay [2]; in the assay on hMSCs) was over 10 µM throughout. `O=C(O)c1ccccc1C(=O)Nc1ccccc1` [LK49]: the concentration for half-maximal inhibition (IC50) in assay [1] is over 10 µM. In assay [2], the EC50 is 5 µM. The corresponding values for `O=C(O)c1ccc(NC(=O)c2ccccc2C(=O)O)cc1` [LK53] are 0.146 µM and 0.005 µM. The corresponding values for `COC(=O)c1ccccc1C(=O)Nc1ccc(-c2ccccc2)cc1` [LK55b, Methyl 2-([1,1′-biphenyl]-4-ylcarbamoyl)benzoate] are 0.234 µM and 0.124 µM. The corresponding values for `O=C(O)c1ccccc1C(=O)Nc1ccc([N+](=O)[O-])cn1` [LK59, 2-((5-nitropyridin-2-yl)carbamoyl)benzoic acid] are 0.491 µM and 0.371 µM. With `Cc1ccc(NC(=O)c2ccccc2C(=O)O)c(C(=O)O)c1` [LK60, 2-(2-carboxybenzamido)-5-methylbenzoic acid], in assay [1], the IC50 was determined as 1.25 µM. Further, in assay [2], the EC50 is 0.014 µM. The corresponding values for `CN1C(=O)c2ccc(NC(=O)c3ccccc3C(=O)O)cc2C1=O` [LK61] are 1.69 µM and 0.052 µM. Regarding `O=C(O)c1ccccc1C(=O)Nc1ccc2c(c1)OCO2` [LK62, 2-(benzo[1,3]dioxol-5-ylcarbamoyl)benzoic acid], the IC50 in assay [1] is 0.145 µM. Besides, the EC50 in assay [2] is 3.36 µM. The matching figures for `O=C(O)c1ccc(NC(=O)c2ccccc2C(=O)O)cc1Cl` [LK63, 4-(2-carboxybenzamido)-2-chlorobenzoic acid]: 0.0298 µM and 0.126 µM. The matching figures for `O=C(O)c1ccc(CNC(=O)c2ccccc2C(=O)O)cc1` [LK64]: 0.981 µM and 0.398 µM. Regarding `COC(=O)NCc1ccc(NC(=O)c2ccccc2C(=O)O)cc1` [PM11], in assay [2], the “Activity (chondrogenic nodules formed in % of cells)” value is listed as “** (chondrogenic nodules formed in at least 25% but less than 50% of cells)”.

With `O=C(O)c1ccccc1C(=O)Nc1ccc(-c2ncc[nH]2)cc1` [PM18], the “Activity (chondrogenic nodules formed in % of cells)” value in assay [2] is “** (chondrogenic nodules formed in at least 25% but less than 50% of cells)”. For the compound `CC(=O)c1ccc(NC(=O)c2ccccc2C(=O)O)cc1` [drawing 168], the IC50 in assay [1] is over 10 µM.
